ChEMBL document CHEMBL1201862, “PubChem BioAssay data set” (2004)
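96-well plates; 48 h exposure; 5 concentrations. Endpoints by linear interpolation between flanking doses. Not reached: highest tested concentration assigned. Abbreviation: GI50, concentration required for 50% inhibition of growth.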 Activity calls are given as the source filed them. No stated cut-off is given here; in the data, active = GI50 up to about 1.1 µM and inactive = higher.

Columns and labels:
Assay in all cases: NCI anticancer screen, dose series, 48 h
786-0 = test system: 786-0
ACHN = test system: ACHN
CAKI-1 = test system: CAKI-1
IGROV-1 = test system: IGROV-1
K562 = test system: K562
LOX IMVI = test system: LOX IMVI
MOLT-4 = test system: MOLT-4
Malme-3M = test system: Malme-3M
NCI-H460 = test system: NCI-H460
NCI/ADR-RES = test system: NCI/ADR-RES
OVCAR-4 = test system: OVCAR-4
PC-3 = test system: PC-3
RXF 393 = test system: RXF 393
SK-MEL-28 = test system: SK-MEL-28
U-251 = test system: U-251
UACC-257 = test system: UACC-257
UO-31 = test system: UO-31
HCT-15 = test system: HCT-15
SK-OV-3 = test system: SK-OV-3
SNB-19 = test system: SNB-19

SMILES | GI50 (786-0) | GI50 (ACHN) | GI50 (CAKI-1) | GI50 (IGROV-1) | GI50 (K562) | GI50 (LOX IMVI) | GI50 (MOLT-4) | GI50 (Malme-3M) | GI50 (NCI-H460) | GI50 (NCI/ADR-RES) | GI50 (OVCAR-4) | GI50 (PC-3) | GI50 (RXF 393) | GI50 (SK-MEL-28) | GI50 (U-251) | GI50 (UACC-257) | GI50 (UO-31) | GI50 (HCT-15) | GI50 (SK-OV-3) | GI50 (SNB-19)
Cc1ccc2ccc(=O)oc2c1 | > 100 µM (inactive) | > 100 µM (inactive) | > 100 µM (inactive) | > 100 µM (inactive) | > 100 µM (inactive) | > 100 µM (inactive) | > 100 µM (inactive) | > 100 µM (inactive) | > 100 µM (inactive) | > 100 µM (inactive) | > 100 µM (inactive) | > 100 µM (inactive) | > 100 µM (inactive) | > 100 µM (inactive) | > 100 µM (inactive) | > 100 µM (inactive) | > 100 µM (inactive) | – | – | –
COc1cc(CNc2ccc3nc4n(c(=O)c3c2)CCCCC4)cc(OC)c1OC | > 100 µM (inactive) | 35.2 µM (inactive) | 64 µM (inactive) | 95.1 µM (inactive) | > 100 µM (inactive) | 55.2 µM (inactive) | 32.7 µM (inactive) | 30.7 µM (inactive) | 39.9 µM (inactive) | 40.4 µM (inactive) | 22.7 µM (inactive) | 44.4 µM (inactive) | 58.6 µM (inactive) | 43.4 µM (inactive) | > 100 µM (inactive) | 24.3 µM (inactive) | 35.4 µM (inactive) | 45.6 µM | > 100 µM (inactive) | –
Cc1ccc(OCC2OC(n3cnc4c(Br)nc(Br)nc43)CC2Oc2ccc(C)cc2)cc1 (configuration not stated) | 3.02 µM (inactive) | 2.32 µM (inactive) | 1.97 µM (inactive) | 5.04 µM (inactive) | 2.57 µM (inactive) | 1.93 µM (inactive) | 2.1 µM (inactive) | 3.58 µM (inactive) | – | 9.59 µM (inactive) | 3.12 µM (inactive) | 2.94 µM (inactive) | 4.94 µM (inactive) | 4.51 µM (inactive) | 2.24 µM (inactive) | 7.06 µM (inactive) | 14.3 µM (inactive) | 2.34 µM | 14.5 µM (inactive) | 7.31 µM (inactive)
CC(C)(C)C(=O)N(C(=S)OCc1ccccn1)c1ccccc1 | 35.8 µM (inactive) | 38.5 µM (inactive) | 35.2 µM (inactive) | 19.9 µM (inactive) | 36.7 µM (inactive) | 23.9 µM (inactive) | 18.8 µM (inactive) | 13.8 µM (inactive) | – | 23.1 µM (inactive) | – | 35.2 µM (inactive) | 18.2 µM (inactive) | > 100 µM (inactive) | 42 µM (inactive) | > 100 µM (inactive) | 27.8 µM (inactive) | 30.1 µM | > 100 µM (inactive) | 59.6 µM (inactive)
O=C1/C(=C/c2ccc([N+](=O)[O-])cc2)Sc2scc(-c3cccc([N+](=O)[O-])c3)[n+]21 | 1.79 µM (inactive) | 3.97 µM (inactive) | 2.8 µM (inactive) | 2.91 µM (inactive) | 2.77 µM (inactive) | 2.41 µM (inactive) | 1.99 µM (inactive) | 1.33 µM (inactive) | 8.99 µM (inactive) | 5.89 µM (inactive) | 9.53 µM (inactive) | 12.5 µM (inactive) | 2.35 µM (inactive) | – | 10.7 µM (inactive) | 5.32 µM (inactive) | 8.51 µM (inactive) | 2.26 µM | 15.9 µM (inactive) | 14.8 µM (inactive)
